In US20230159509A1 (Amathus Therapeutics, Inc., priority 2020, published 2023):

Assays:
Type in all cases: cell-based
[1] = system: primary rat dopaminergic TH-positive neurons; test: ROS production and neurite network in primary rat dopaminergic TH-positive neurons injured with MPP+ or 6-OHDA
[2] = system: α-synuclein; test: α-synuclein aggregation in human embryonic stem cells overexpressing α-synuclein with an AAV vector; conditions: FIG. 9
[3] = target: T1, nanoLuc TRAP1 in SHSY5Y cells (Homo sapiens, UniProt Q12931); test: NanoBRET in-cell target engagement assay
T1 construct: expressed in transfected cells; host or cells: SHSY5Y cells, transient transfection with FuGENE HD
T1 sequence (Q12931 60-704): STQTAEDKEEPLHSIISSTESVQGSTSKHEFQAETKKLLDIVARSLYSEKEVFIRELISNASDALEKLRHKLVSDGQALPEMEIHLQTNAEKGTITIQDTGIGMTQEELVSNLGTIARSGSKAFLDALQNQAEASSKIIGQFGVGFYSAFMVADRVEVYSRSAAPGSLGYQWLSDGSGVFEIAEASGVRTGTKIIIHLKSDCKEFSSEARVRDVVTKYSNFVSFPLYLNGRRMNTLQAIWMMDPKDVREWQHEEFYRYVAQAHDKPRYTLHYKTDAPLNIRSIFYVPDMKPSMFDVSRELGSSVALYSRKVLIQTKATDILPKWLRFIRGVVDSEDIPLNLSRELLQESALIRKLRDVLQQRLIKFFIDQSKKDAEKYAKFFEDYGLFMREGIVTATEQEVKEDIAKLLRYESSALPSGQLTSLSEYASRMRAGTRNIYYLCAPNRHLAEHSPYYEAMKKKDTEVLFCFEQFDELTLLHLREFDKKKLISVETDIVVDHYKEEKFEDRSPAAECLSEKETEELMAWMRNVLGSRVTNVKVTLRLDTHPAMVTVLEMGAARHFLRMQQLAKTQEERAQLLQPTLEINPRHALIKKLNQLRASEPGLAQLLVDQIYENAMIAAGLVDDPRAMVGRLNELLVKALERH
Experimental: In-cell target engagement assays were performed as described in Robers M. B. et al. (2019) Quantitative, Real-Time Measurements of Intracellular Target Engagement Using Energy Transfer. In: Ziegler S., Waldmann H. (eds) Systems Chemical Biology. Methods in Molecular Biology, vol 1888. Humana Press, New York, N.Y.; Machleidt et al., ACS Chem. Biol. 2015, 10, 8, 1797-1804; or Vasta et al., Cell Chemical Biology 25, 206-214, Feb. 15, 2018; or as described herein.
Below is a protocol for transient transfection of SHSY5Y cells with NanoLuc® fusions. • 1. Cultivate SHSY5Y cells appropriately prior to assay in MEM w NEAA supplemented with 10% FBS. • 2. Remove medium from cell flask via aspiration, trypsinize, and allow cells to dissociate from the flask. • 3. Neutralize trypsin using growth medium and pellet cells via centrifugation at 200 g for 5 minutes. • 4. Aspirate medium and re-suspend cells into a single cell suspension using complete cell culture medium. • 5. Adjust the cell density to 300K/mL in cell culture medium in a sterile, conical tube. • 6. Prepare lipid:DNA complexes as follows (this covers two assay plates, adjust numbers for more plates) • a. Prepare a 10 μg/mL solution of DNA in Opti-MEM without serum. This solution should contain the following ratios of carrier DNA and DNA encoding NanoLuc® fusion. • i. 5.0 μg/mL of Transfection Carrier DNA (pGEM) • ii. […]

Compound: COc1ncc(NC(=O)c2csc(-c3ccccc3)n2)cc1S(=O)(=O)Nc1c(C)cccc1C [compound 1178]
- neurite network of primary rat TH+ dopaminergic neurons ([1]; injured with MPP+ (4 μM, 24 h), FIG. 4): protection of the neurite network
- neurite network of primary rat TH+ dopaminergic neurons ([1]; injured with MPP+ (4 μM, 48 h), FIG. 5): protection of neurite network
- ROS production in primary rat dopaminergic neurons ([1]; injury with 6-OHDA (20 μM, 4 h), FIG. 8): reduction in ROS
- ROS production in primary rat dopaminergic neurons ([1]; injury with MPP+ (4 μM, 4 h), FIG. 2): reduction of reactive oxygen species (ROS)
- ROS production in rat primary mesencephalic culture ([1]; injury with MPP+ (4 μM, 4 h), FIG. 3): reduction ROS
- α-synuclein aggregation [2]: reduction in α-synuclein aggregation
- displacement of fluorescent nanoBRET tracer (probe-385) from nanoLuc TRAP1 ([3]; SHSY5Y cells, tracer titration, compound 20 PM, FIG. 13): displacement of the tracer
- displacement of nanoBRET tracer (probe-385) from nanoLuc TRAP1, concentration response ([3]; live SHSY5Y cells, tracer 1 μM, FIG. 14): displacing the nanoBRET tracer molecule
